Source: patent publication US11179383B2 (Gilead Sciences, Inc., priority 2018, dated 2021)

What follows are compounds tested against T1, α4β7 integrin (Homo sapiens, UniProt P13612+P26010) (assay: α4β7 Integrin Cell Capture Assay). Details: EC50 α4β7 (nM), capture of α4β7 integrin expressing RPMI8866 cells on recombinant MadCAM-1 extracellular domain-coated plate; DMEM+0.5% FBS+0.5 mM MnCl2.
T1 construct: monitoring the capture of α4β7 integrin expressing cells on a recombinant MadCAM-1 extracellular domain-coated plate; endogenous in cells; host or cells: RPMI8866 cells
T1 sequence (P13612 34-1032): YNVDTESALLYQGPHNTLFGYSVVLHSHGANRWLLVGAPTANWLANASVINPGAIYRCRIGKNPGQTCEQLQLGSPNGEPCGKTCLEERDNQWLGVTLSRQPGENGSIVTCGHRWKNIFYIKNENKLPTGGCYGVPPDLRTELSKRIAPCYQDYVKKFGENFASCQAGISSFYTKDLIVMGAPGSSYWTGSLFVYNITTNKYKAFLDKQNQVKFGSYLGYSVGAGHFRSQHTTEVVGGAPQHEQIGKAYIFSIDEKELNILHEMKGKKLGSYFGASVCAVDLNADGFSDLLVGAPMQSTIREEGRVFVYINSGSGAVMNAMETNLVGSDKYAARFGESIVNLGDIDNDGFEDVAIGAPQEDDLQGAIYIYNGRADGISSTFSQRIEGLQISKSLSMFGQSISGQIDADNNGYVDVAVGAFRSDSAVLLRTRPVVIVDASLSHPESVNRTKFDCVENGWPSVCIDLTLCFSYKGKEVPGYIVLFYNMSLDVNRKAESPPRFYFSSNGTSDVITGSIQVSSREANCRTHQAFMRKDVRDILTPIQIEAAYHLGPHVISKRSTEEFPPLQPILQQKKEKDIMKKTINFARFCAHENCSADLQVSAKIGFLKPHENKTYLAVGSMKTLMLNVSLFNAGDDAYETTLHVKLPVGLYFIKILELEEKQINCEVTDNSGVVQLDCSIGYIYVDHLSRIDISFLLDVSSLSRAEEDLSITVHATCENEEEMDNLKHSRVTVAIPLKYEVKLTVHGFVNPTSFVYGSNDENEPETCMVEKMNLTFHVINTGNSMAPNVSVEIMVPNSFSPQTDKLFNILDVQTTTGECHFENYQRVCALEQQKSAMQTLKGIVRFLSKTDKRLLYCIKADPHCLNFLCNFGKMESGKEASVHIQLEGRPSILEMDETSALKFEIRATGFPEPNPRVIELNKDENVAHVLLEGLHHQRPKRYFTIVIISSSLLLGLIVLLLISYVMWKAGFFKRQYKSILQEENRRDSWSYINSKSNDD
T1 sequence (P26010 20-798): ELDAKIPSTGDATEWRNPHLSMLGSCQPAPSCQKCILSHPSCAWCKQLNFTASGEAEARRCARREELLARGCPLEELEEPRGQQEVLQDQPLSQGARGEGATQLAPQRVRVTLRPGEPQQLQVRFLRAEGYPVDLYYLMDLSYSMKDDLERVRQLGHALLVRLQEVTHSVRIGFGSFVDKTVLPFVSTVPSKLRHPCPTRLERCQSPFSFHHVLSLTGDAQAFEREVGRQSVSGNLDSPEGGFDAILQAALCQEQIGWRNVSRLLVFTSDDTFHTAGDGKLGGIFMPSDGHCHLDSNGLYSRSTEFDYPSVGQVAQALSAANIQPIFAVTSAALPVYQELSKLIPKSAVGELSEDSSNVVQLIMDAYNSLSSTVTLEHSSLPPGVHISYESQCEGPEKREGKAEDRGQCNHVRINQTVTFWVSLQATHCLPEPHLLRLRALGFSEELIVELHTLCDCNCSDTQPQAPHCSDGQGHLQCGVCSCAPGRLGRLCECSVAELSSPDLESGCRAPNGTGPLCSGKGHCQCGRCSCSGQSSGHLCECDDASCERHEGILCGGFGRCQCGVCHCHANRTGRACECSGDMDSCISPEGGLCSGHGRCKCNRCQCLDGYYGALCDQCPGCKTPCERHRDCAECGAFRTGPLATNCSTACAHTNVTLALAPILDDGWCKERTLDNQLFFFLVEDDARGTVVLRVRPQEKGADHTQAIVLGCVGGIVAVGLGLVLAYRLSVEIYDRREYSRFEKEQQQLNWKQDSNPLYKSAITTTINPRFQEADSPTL
Format: cell-based
Procedure: α4β7 Integrin Cell Capture Assay
The potency of inhibitors in preventing α4β7 integrin interaction with MadCAM-1 was measured by monitoring the capture of α4β7 integrin expressing cells on a recombinant MadCAM-1 extracellular domain-coated plate.
384-Well plates (Corning 3702) were coated with MadCAM-1 extracellular domain by dispensing 20 μL of MAdCAM-1 at 1.0 μg/mL per well and incubating overnight at 4° C. The plates were then washed with PBS and blocked with 3% BSA for 2 hours before being washed again.
RPMI8866 cells were spun down and re-suspended in assay medium (DMEM+0.5% FBS+0.5 mM MnCl2) at a density of 0.5×10^6 cells/mL. The cells were then dispensed (60 μL/well) to a 384-well plate (Greiner 781280) that was previously spotted with 60 nL of test compound per well. The plates were incubated at 37° C. for 1 hour. 50 μL of cells were transferred to the blocked, MadCAM-1-coated plates and incubated for 30 minutes at 37° C. 10 μL of 12% glutaraldehyde containing Hoechst 33342 (0.06 mg/mL) was added to the cells (2% glutaraldehyde and 0.01 mg/mL final concentrations). The plates were incubated for 90 minutes at room temperature. The plates were then washed 3 times with 70 μL of PBS per well and imaged on a Cellomics ArrayScan instrument. The cells that were bound to the plate were counted and plotted against the compound concentration to determine the EC50 of the test compounds.

Question: How did the EC50 turn out when `CN(C)C(=O)Oc1ccc(C[C@H](NC(=O)c2c(Cl)cccc2Cl)C(=O)O)c2ncccc12` [Example 89, (S)-2-(2,6-dichlorobenzamido)-3-(5-((dimethylcarbamoyl)oxy)quinolin-8-yl)propanoic acid] was run?
Answer: Its EC50 is 173 nM.

Same assay, conditions: capture of α4β7 integrin expressing RPMI8866 cells on recombinant MadCAM-1 extracellular domain-coated plate; DMEM+0.5% FBS+0.5 mM MnCl2; read-out: EC50 α4β7

Question: For `Cc1c(-c2ccc(C[C@H](NC(=O)c3c(F)cc(N4CCOC[C@@H]4C(F)(F)F)cc3F)C(=O)O)c3ncccc23)c(=O)n(C)c2ccc(F)cc12` (single isomer, unassigned) [Example 88], which EC50 is on record?
Answer: The EC50 was 0.1 nM.

Question: With `COc1cc(F)cnc1-c1ccc(C[C@H](NC(=O)c2c(Cl)cccc2Cl)C(=O)O)c2ncccc12` [Example 13, (S)-2-(2,6-dichlorobenzamido)-3-(5-(5-fluoro-3-methoxypyridin-2-yl)quinolin-8-yl)propanoic acid] as the compound, how does the EC50 read?
Answer: The EC50 was 66.9 nM.

Question: `COc1cc(F)c(Cl)cc1-c1ccc(C[C@H](NC(=O)c2c(Cl)cccc2Cl)C(=O)O)c2ncccc12` [Example 52, (S)-3-(5-(5-chloro-4-fluoro-2-methoxyphenyl)quinolin-8-yl)-2-(2,6-dichlorobenzamido)propanoic acid] was tested. Which EC50 did it give?
Answer: The EC50 was 43.8 nM.

Question: `Cc1c(-c2ccc(C[C@H](NC(=O)c3c(Cl)cccc3Cl)C(=O)O)c3ncccc23)c(=O)n(C)c2cc(F)ccc12` [Example 41, (S)-2-(2,6-dichlorobenzamido)-3-(7-fluoro-1,4-dimethyl-2-oxo-1,2-dihydro-[3,5′-biquinolin]-8′-yl)propanoic acid] was tested. Which EC50 did it give?
Answer: Its EC50 is 7.5 nM.

Question: How did the EC50 turn out when `Cc1c(-c2ccc(C[C@H](NC(=O)c3c(Cl)cccc3Cl)C(=O)O)c3ncccc23)c(=O)n(C)c2cc(Cl)ccc12` [Example 74, (S)-3-(7-chloro-1,4-dimethyl-2-oxo-1,2-dihydro-[3,5′-biquinolin]-8′-yl)-2-(2,6-dichlorobenzamido)propanoic acid] was run?
Answer: The EC50 was 131 nM.

Question: Which EC50 does the source give for `Cc1cc(-c2ccc(C[C@H](NC(=O)c3c(Cl)cccc3Cl)C(=O)O)c3ncccc23)c(=O)n(C)c1` [Example 31, (S)-2-(2,6-Dichlorobenzamido)-3-(5-(1,5-dimethyl-2-oxo-1,2-dihydropyridin-3-yl)quinolin-8-yl)propanoic acid] here?
Answer: Its EC50 is 23.2 nM.

Question: `Cc1c(-c2ccc(C[C@H](NC(=O)c3c(Cl)cccc3Cl)C(=O)O)c3ncccc23)c(=O)n(C)c2ccc(Cl)cc12` (single isomer, unassigned) [Example 76] was tested. Which EC50 did it give?
Answer: Its EC50 is 55.7 nM.

Question: How did the EC50 turn out when `COc1cccc(OC)c1-c1ccc(C[C@H](NC(=O)c2c(F)cc(NS(=O)(=O)c3ccc(-n4cncn4)cc3)cc2F)C(=O)O)c2ccncc12` (single isomer, unassigned) [Example 164] was run?
Answer: The EC50 was 1.3 nM.

Question: How did the EC50 turn out when `Cn1c(=O)c(-c2ccc(C[C@H](NC(=O)c3c(Cl)cccc3Cl)C(=O)O)c3ncccc23)c(C(F)(F)F)c2cc(Br)ccc21` [Example 58, (S)-3-(6-bromo-1-methyl-2-oxo-4-(trifluoromethyl)-1,2-dihydro-[3,5′-biquinolin]-8′-yl)-2-(2,6-dichlorobenzamido)propanoic acid] was run?
Answer: Its EC50 is 19.2 nM.

Question: `COc1cccc(OC)c1-c1ccc(C[C@H](NC(=O)c2c(F)cc(NS(=O)(=O)c3ccc(-c4ccnc(F)c4)cc3)cc2F)C(=O)O)c2ncccc12` [Example 101, (S)-2-(2,6-difluoro-4-((4-(2-fluoropyridin-4-yl)phenyl)sulfonamido)benzamido)-3-(5-(2,6-dimethoxyphenyl)quinolin-8-yl)propanoic acid] was tested. Which EC50 did it give?
Answer: The EC50 was 1.7 nM.

Question: How did the EC50 turn out when `COc1cnn(C)c(=O)c1-c1ccc(C[C@H](NC(=O)c2c(Cl)cccc2Cl)C(=O)O)c2ncccc12` [Example 69, (S)-2-(2,6-dichlorobenzamido)-3-(5-(5-methoxy-2-methyl-3-oxo-2,3-dihydropyridazin-4-yl)quinolin-8-yl)propanoic acid] was run?
Answer: The EC50 was 9.2 nM.

Question: `Cc1c(-c2ccc(C[C@H](NC(=O)c3c(Cl)cccc3Cl)C(=O)O)c3ncccc23)c(=O)n(C)c2ccccc12` (single isomer, unassigned) [Example 48] was tested. Which EC50 did it give?
Answer: Its EC50 is 2.1 nM.

Question: With `O=C(N[C@@H](Cc1ccc(-c2c(Cl)cc(F)cc2Cl)c2cccnc12)C(=O)O)c1c(Cl)cccc1Cl` [Example 7, (S)-3-(5-(2,6-dichloro-4-fluorophenyl)quinolin-8-yl)-2-(2,6-dichlorobenzamido)propanoic acid] as the compound, how does the EC50 read?
Answer: Its EC50 is 522 nM.

Question: For `CC[C@@H](Nc1cc(F)c(C(=O)N[C@@H](Cc2ccc(-c3cc4cnccc4n(C)c3=O)c3ccccc23)C(=O)O)c(F)c1)C(F)(F)F` [Example 142], which EC50 is on record?
Answer: The EC50 was 0.5 nM.

Question: With `CCOCc1cc(OC)c(-c2ccc(C[C@H](NC(=O)c3c(F)cc(NS(=O)(=O)c4ccc(-c5ccnc(F)c5)cc4)cc3F)C(=O)O)c3cnn(C)c23)c(OC)c1` (single isomer, unassigned) [Example 147] as the compound, how does the EC50 read?
Answer: The EC50 was 0.4 nM.

Question: `COc1cnn(C)c(=O)c1-c1ccc(C[C@H](NC(=O)c2c(Cl)cccc2Cl)C(=O)O)c2ncccc12` [Example 72, (S)-2-(2,6-dichlorobenzamido)-3-(5-(5-methoxy-2-methyl-3-oxo-2,3-dihydropyridazin-4-yl)quinolin-8-yl)propanoic acid] was tested. Which EC50 did it give?
Answer: Its EC50 is 11.2 nM.

Question: With `CCOCc1cc(OC)c(-c2ccc(C[C@H](NC(=O)c3c(F)cc(NS(=O)(=O)c4ccc(-c5ccnc(F)c5)cc4)cc3F)C(=O)O)c3c2cnn3C)c(OC)c1` [Example 144] as the compound, how does the EC50 read?
Answer: The EC50 was 4.9 nM.

Question: `Cc1ccc(-c2ccc(C[C@H](NC(=O)c3c(Cl)cccc3Cl)C(=O)O)c3ncccc23)c(=O)n1C` [Example 33, (S)-2-(2,6-dichlorobenzamido)-3-(5-(1,6-dimethyl-2-oxo-1,2-dihydropyridin-3-yl)quinolin-8-yl)propanoic acid] was tested. Which EC50 did it give?
Answer: Its EC50 is 12.2 nM.

Question: With `O=C(N[C@@H](Cc1ccc(-c2nccnc2C(F)(F)F)c2cccnc12)C(=O)O)c1c(Cl)cccc1Cl` [Example 15, (S)-2-(2,6-dichlorobenzamido)-3-(5-(3-(trifluoromethyl)pyrazin-2-yl)quinolin-8-yl)propanoic acid] as the compound, how does the EC50 read?
Answer: Its EC50 is 85 nM.

Question: For `Cc1c(-c2ccc(C[C@H](NC(=O)c3c(Cl)cccc3Cl)C(=O)O)c3ncccc23)c(=O)n(C)c2ccccc12` (single isomer, unassigned) [Example 47], which EC50 is on record?
Answer: Its EC50 is 28.6 nM.

Question: Which EC50 does the source give for `O=C(N[C@@H](Cc1ccc(-c2ncc3ccccc3c2Br)c2ccccc12)C(=O)O)c1c(Cl)cccc1Cl` [Example 113, (S)-3-(4-(4-bromoisoquinolin-3-yl)naphthalen-1-yl)-2-(2,6-dichlorobenzamido) propanoic acid] here?
Answer: The EC50 was 12.3 nM.
